From publication PMC7177633, “Effective Cellular Transport of Ortho-Halogenated Sulfonamide Derivatives of Metformin Is Related to Improved Antiproliferative Activity and Apoptosis Induction in MCF-7 Cells” (International Journal of Molecular Sciences, 2020)
Where two headings read alike, the source gives them in different places.

Key:
MDA-MB-231 cells [1] = experiment: Annexin V-FITC/PI apoptosis assay, MDA-MB-231; format: cell-based, human; settings: for Early Apoptotic [E+−] / Late Apoptotic [E++] / Living Cells [E−−] / Necrotic Cells [E−+] / Single Cells in Gate B: MDA-MB-231, 24 h
Method: MCF-7 and MDA-MB-231 cells were seeded at a density of 5 × 10^4 per well on 24-well plates and incubated for 24 h (37 °C, 5% CO2) to obtain 70 % confluency. Then, the medium (control) or medium with the tested compounds in a volume of 250 μL was added and incubated for another 24 h. The cells were harvested using accutase (Sigma Aldrich, St. Louis, MO, USA) as a detaching reagent, collected to Eppendorf tubes and centrifuged (1100 rpm, 5 min). Afterwards, the cells were resuspended in 1 mL of a cold cell-staining buffer (Biolegend, London UK) and washed twice with a cell-staining buffer. The final step included suspension of the cell pellets in 100 μL of a binding buffer, staining with propidine iodide (PI; 10 μL) and FITC-annexin solutions (AV; 5 μL) (FITC Annexin V Apoptosis Detection Kit with PI (Biolegend, UK)). The samples were incubated for 20 min at room temperature in the dark, followed by an analysis conducted on a cytometer (CytoFlex, blue laser, 480 nm, Beckman-Coulter, Indianapolis, IN, USA). The results were analyzed using Kaluza 2.1 (Beckman-Coulter) software.
Annexin V (−) and PI (−) cells were considered living cells, annexin V (+) and PI (−) as early-apoptotic cells, annexin V (+) and PI (+) as late-apoptotic cells and annexin V (−) and PI (+) as necrotic cells.
The experiments were conducted in triplicates (n = 3). The coefficients of variation for the assay were determined (CV = 0.97–13.62%, depending on the calculated cell population).

MDA-MB-231 cells [2] = experiment: Cellular uptake of metformin sulfonamides in MDA-MB-231 cells (HPLC); format: in vitro ADME, human; settings: for transport efficacy (Vmax/Km) in MCF-7 relative to MDA-MB-231: fold lower in MDA-MB-231 than in MCF-7
In short: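 MCF-7 or MDA-MB-231 cells exposed to 10−3000 μmol/L compound in HBSS at 37 °C for 10 min, washed with ice-cold HBSS, then lysed in 0.1 M NaOH. Intracellular compound quantified by reversed-phase HPLC-UV at 235 nm against standards spiked on cell layers. Protein by Bradford; quadruplicates.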

MCF-7 cells = experiment: Cell viability WST-1 assay, MCF-7; format: cell-based; settings: Homo sapiens, MCF7; WST-1, 24 h, mean ± SD (n = 6–8); read-out: IC50 inhibition of MCF-7 cells' viability
In short: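 Cells seeded 1 × 10^4/well, grown 24 h, then treated with compounds for 24 h at 37 °C. WST-1 reagent added for 1.5 h, absorbance at 450 nm, normalised to medium-only control (n = 8). IC50 from nonlinear log(concentration)-response fit.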

OCTs = experiment: Inhibition of [14C]choline uptake in MCF-7 cells (competitive inhibition assay); format: cell-based, human; settings: mean ± SD (n = 3)
Method: The following day, after removal of the culture medium, the cells were carefully washed with prewarmed HBSS (Hanks’ balanced salt solution) containing 125 mM NaCl, 4.8 mM KCl, 1.2 mM MgSO4, 1.2 mM KH2PO4, 1.3 mM CaCl2, 5.6 mM glucose and 25 mM HEPES (pH 7.4). […] Then, the cells were washed three times with ice-cold HBSS (500 μL) and were lysed with 250 μL of 0.1-M NaOH in the ice bath, and the lysate was mixed with 1.0 mL of an emulsifier safe cocktail (PerkinElmer, Waltham, MA, USA). The radioactivity was measured by liquid scintillation counting (MicroBeta^2 counter, PerkinElmer, Waltham, MA, USA). The studies were carried out with the use of at least three replicates from the same cell passage.

[3] = Comp. 1 and 4 1500 μmol/L, Comp. 7 1300 μmol/L (½ × IC50)
[4] = Comp. 1 and 4 3000 μmol/L, Comp. 7 2600 (IC50)
[5] = Eadie-Hofstee analysis, transporter I
[6] = Eadie-Hofstee analysis, transporter I, read-out: Km, transporter I, MDA-MB-231
[7] = Eadie-Hofstee analysis, transporter II
[8] = Eadie-Hofstee analysis, transporter II, read-out: Km, transporter II, MDA-MB-231
[9] = MDA-MB-231, 3000 uM, representative cytogram Figure 7B

| SMILES | Early Apoptotic [E+−] (MDA-MB-231 cells [1]; [3]) | Late Apoptotic [E++] (MDA-MB-231 cells [1]; [3]) | Living Cells [E−−] (MDA-MB-231 cells [1]; [3]) | Necrotic Cells [E−+] (MDA-MB-231 cells [1]; [3]) | Single Cells in Gate B (MDA-MB-231 cells [1]; [3]) | Early Apoptotic [E+−] (MDA-MB-231 cells [1]; [4]) | Late Apoptotic [E++] (MDA-MB-231 cells [1]; [4]) | Living Cells [E−−] (MDA-MB-231 cells [1]; [4]) | Necrotic Cells [E−+] (MDA-MB-231 cells [1]; [4]) | Single Cells in Gate B (MDA-MB-231 cells [1]; [4]) | Vmax, transporter I, MDA-MB-231 (MDA-MB-231 cells [2]; [5]) | Km (MDA-MB-231 cells [2]; [6]) | Vmax, transporter II, MDA-MB-231 (MDA-MB-231 cells [2]; [7]) | Km (MDA-MB-231 cells [2]; [8]) | transport efficacy (Vmax/Km) in MCF-7 relative to MDA-MB-231 (MDA-MB-231 cells [2]) | IC50 (MCF-7 cells) | IC50 (OCTs) | other results |
| --- | --- | --- | --- | --- | --- | --- | --- | --- | --- | --- | --- | --- | --- | --- | --- | --- | --- | --- |
| CN(C)C(=N)N=C(N)NS(=O)(=O)c1ccccc1Cl [Compound 1] | 7.66 ± 0.06 % | 8.06 ± 0.81 % | 81.55 ± 1.65% | 2.74 ± 0.98% | 94.34 ± 0.26% | 9.96 ± 0.92 % | 31.41 ± 3.46 % | 53.83% | 4.81 ± 0.60% | 91.85 ± 0.37 % | 0.0182 ± 0.0026 nmol/min/mg | 3.07 ± 0.562 mM | 0.0261 ± 0.0040 nmol/min/mg | 3.3 ± 0.625 mM | over 370 fold | 12.6 ± 1.2 µM | 1050 ± 14.2 µM | Living Cells [E−−] (MDA-MB-231 cells [1]; Comp. 1 and 4 1500 μmol/L, Comp. 7 1300 μmol/L (½ × IC50), listed as Comp. 1): 81.55 ± 1.65 %; Living Cells [E−−] (MDA-MB-231 cells [1]; Comp. 1 and 4 3000 μmol/L, Comp. 7 2600 (IC50), listed as Comp. 1): 53.83 ± 3.87 %; Vmax MDA-231 cells (Michaelis Menten curves) (MDA-MB-231 cells [2]; Michaelis-Menten curve): 0.047 ± 0.065 nmol/min/mg; Km (MDA-MB-231 cells [2]; Michaelis-Menten curve, read-out: Km MDA-231 cells (Michaelis Menten curves)): 8.3 ± 3.27 mM |
| CN(C)C(=N)N=C(N)NS(=O)(=O)c1ccccc1Br [Compound 4] | 7.74 ± 0.91 % | 13.30 ± 0.66 % | 72.64 ± 1.76 % | 6.31 ± 0.26 % | 93.37 ± 0.34% | 6.85 ± 0.34 % | 36.51 ± 3.36 % | 49.49 ± 2.31 % | 7.15 ± 1.45 % | 90.59 ± 0.70 % | 10.27 ± 1.18 nmol/min/mg | 5.52 ± 0.748 mM | 21.44 ± 4.03 nmol/min/mg | 11.6 ± 2.44 mM | – | 430 ± 119 µM | 1670 ± 8.5 µM | Early apoptosis (representative cytogram) (MDA-MB-231 cells [1]; [9]): 6.91%; Late apoptosis (representative cytogram) (MDA-MB-231 cells [1]; [9]): 34.48%; Live cells (representative cytogram) (MDA-MB-231 cells [1]; [9]): 51.21%; Necrotic cells (representative cytogram) (MDA-MB-231 cells [1]; [9]): 7.40%; uptake into MDA-MB-231 cells (MDA-MB-231 cells [2]; 800 μmol/L, 10 min incubation, 37 °C): 1.3 ± 0.21 nmol/min/mg protein; uptake in MDA-MB-231 relative to MCF-7 (MDA-MB-231 cells [2]; fold more efficient in MDA-MB-231 than in MCF-7): approximately 130 fold |
| CN(C)C(=N)N=C(N)NS(=O)(=O)c1ccccc1F [Compound 7] | 8.78 ± 0.63 % | 18.89 ± 2.67 % | 68.26 ± 3.51 % | 4.06 ± 1.75% | 93.75 ± 0.41% | 6.39 ± 0.16 % | 35.54 ± 2.67 % | 50.40 ± 4.95 % | 7.66 ± 2.93 % | 91.60 ± 0.48 % | 0.262 ± 0.035 nmol/min/mg | 1.53 ± 0.298 mM | 0.443 ± 0.026 nmol/min/mg | 2.25 ± 0.19 mM | 10 fold | 55.1 ± 2.74 µM | 6354 ± 12.9 µM | – |
